Reference: patent US11053253B2, “Macrocyclic compounds for treatment of medical disorders” (Achillion Pharmaceuticals, Inc., priority 2017, dated 2021)

Test system: not given
Experiment: not given
Details: rcm bond; 20-membered ring; Grubbs II; toluene; 1.6 mM; 80.0 °C

Compound | ring closure, yield after HPLC [%]
(4^1R,4^3S,4^5S,Z)-1^3-acetyl-N-(6-bromo-3-methylpyridin-2-yl)-3,14-dioxo-1^1H-6-oxa-4^2,13,15-triaza-1(1,6)-indazola-4(2,5)-bicyclo[3.1.0]hexanacyclopentadecaphan-8-ene-43-carboxamide | 2.1

Test system: not given
Experiment: not given
Details: from C=CCCCC(=O)NC[C@]12C[C@@H](C(=O)Nc3nc(Br)ccc3C)N[C@]1(C(=O)Cn1nc(C#N)c3cc(-c4cnc(C)nc4)nc(CC=C)c31)C2; rcm bond; 17-membered ring; Grubbs II; toluene; 1.27 mM; 80.0 °C; 16.0 h

Compound | ring closure, isolated yield [%]
Cc1ncc(-c2cc3c(C#N)nn4c3c(n2)CC=CCCCC(=O)NC[C@]23C[C@@H](C(=O)Nc5nc(Br)ccc5C)N[C@@]2(C3)C(=O)C4)cn1 | 44.8

Same assay, conditions: from C=CCCCNC(=O)Oc1ccc2c(C(C)=O)nn(CC(=O)N3[C@H](C(=O)Nc4nc(Br)ccc4C)C[C@@]4(COCC=C)C[C@@H]34)c2c1; rcm bond; 20-membered ring; Grubbs II; toluene; 1.48 mM; 80.0 °C; 16.0 h

Compound | ring closure, isolated yield [%]
CC(=O)c1nn2c3cc(ccc13)OC(=O)NCCCC=CCOC[C@@]13C[C@@H](C(=O)Nc4nc(Br)ccc4C)N(C(=O)C2)[C@@H]1C3 | 4.1

Same assay, conditions: from C=CCOCc1ccc(Br)nc1NC(=O)[C@@H]1C[C@@]2(CN(C)CC=C)C[C@H]2N1C(=O)OC(C)(C)C; rcm bond; 15-membered ring; Hoveyda-Grubbs II (extra 5 mg portions); toluene; 10.0 mM; 80.0 °C; 2.0 h

Compound | ring closure, isolated yield [%]
CN1CC=CCOCc2ccc(Br)nc2NC(=O)[C@@H]2C[C@]3(C[C@H]3N2C(=O)OC(C)(C)C)C1 | 68

Target: Human Factor D (Homo sapiens (Human), UniProt P00746)
Experiment: Human Factor D Assay
Type: biochemical
Details: Human Factor D 80 nM, substrate Z-L-Lys-SBzl, DTNB, A405; read-out: IC50 (Stars)
Procedure, shortened: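 Serum-purified enzyme (80 nM final) was preincubated with compound 5 min at room temperature in 50 mM Tris, 1M NaCl, pH 7.5. Z-L-Lys-SBzl and DTNB ([…] each, final) were added and A405 followed every 30 s for 30 min; IC50 from nonlinear regression of reaction rates.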

Sequence of Human Factor D (P00746 26-253): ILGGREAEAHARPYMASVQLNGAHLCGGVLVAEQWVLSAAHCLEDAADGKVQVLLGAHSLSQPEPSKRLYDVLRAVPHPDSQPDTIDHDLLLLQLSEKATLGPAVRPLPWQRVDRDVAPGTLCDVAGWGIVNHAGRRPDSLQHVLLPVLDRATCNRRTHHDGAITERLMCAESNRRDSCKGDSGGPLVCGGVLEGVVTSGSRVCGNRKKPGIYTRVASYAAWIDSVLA

Compound | IC50 [nM]
CC(=O)c1nn(CC(=O)N2[C@H]3C[C@@]4(CNC(=O)C(C)(C)C=CCOCc5ccc(C(F)(F)F)nc5NC3=O)C[C@@H]24)c2ccc(-c3cnc(C)nc3)cc12 [Compound T-235] | < 1000
CC(=O)c1nn(CC(=O)N2[C@H]3C[C@@]4(CNC(=O)C(C)(C)CCCOCc5ccc(Br)nc5NC3=O)C[C@@H]24)c2cnc(-c3cnc(C)nc3)cc12 [Compound T-116] | < 1000
CC(=O)c1nn(CC(=O)N2C[C@@]3(F)CNC(=O)CCCCCOCc4ccc(Br)nc4NC(=O)[C@@H]2C3)c2ccc(-c3cnc(C)nc3)cc12 [Compound T-178] | < 1000
CC(=O)c1nn(CC(=O)N2[C@H]3C[C@@]4(C=CCCCCN(C)C(=O)Cc5ccc(Br)nc5NC3=O)C[C@@H]24)c2ccc(-c3cnc(C)nc3)cc12 [Compound T-19, (41R,43S,45R)-42-(2-(3-acetyl-5-(2-methylpyrimidin-5-yl)-1H-indazol-1-yl)acetyl)-16-bromo-11-methyl-42,2,11-triaza-1(2,3)-pyridina-4(3,5)-bicyclo[3.1.0]hexanacyclotridecaphan-5-ene-3,12-dione] | < 1000
CC(=O)c1nn2c3c(nc(-c4cnc(C)nc4)cc13)CCCCCCCOC[C@@]13C[C@@H](C(=O)Nc4nc(C(F)(F)F)ccc4C)N(C(=O)C2)[C@@H]1C3 [Compound T-163] | < 1000
CC(=O)c1nn2c3c(cc(-c4cnc(C)nc4)cc13)CCCCCCCCc1cn(nn1)C[C@@]13C[C@@H](C(=O)Nc4nc(Br)ccc4C)N(C(=O)C2)[C@@H]1C3 [Compound T-53] | < 1000
CC(=O)c1nn(CC(=O)N2[C@H]3C[C@@]4(COCC=CCOCc5ccc(Br)nc5NC3=O)C[C@@H]24)c2c(CF)cc(-c3cnc(C)nc3)cc12 [Compound T-77] | < 1000
CC(=O)c1nn2c3c(cc(-c4cnc(C)nc4)cc13)CCCCCCCOC[C@@]13C[C@@H](C(=O)Nc4nc(C(F)(F)F)ccc4C)N(C(=O)C2)[C@@H]1C3 [Compound T-102] | < 1000
CC(=O)c1nn2c3c(cc(-c4cnc(C)nc4)cc13)CCCCCCC(=O)NC[C@@]13C[C@@H](C(=O)Nc4nc(C#N)ccc4C)N(C(=O)C2)[C@@H]1C3 [Compound T-221] | < 1000
CC(=O)c1nn2c3c(cc(-c4cnc(C)nc4)cc13)CC=CCCCC(=O)NC[C@]1(F)C[C@@H](C(=O)Nc3nc(C(F)(F)F)ccc3C)N(C1)C(=O)C2 [Compound T-127] | > 10000
CC(=O)c1nn2c3c(cc(-c4cnc(C)nc4)cc13)CCCCCCCc1cccc(n1)OC[C@@]13C[C@@H](C(=O)Nc4nc(Br)ccc4C)N(C(=O)C2)[C@@H]1C3 [Compound T-139] | < 1000
CC(=O)c1nn(CC(=O)N2C[C@@]3(F)CNC(=O)C(C)(C)CCCCOCc4ccc(Br)nc4NC(=O)[C@@H]2C3)c2cnc(-c3cnc(C)nc3)cc12 [Compound T-171] | < 1000
